{"source": "patent US20190083497A1", "about": "“MODULATION OF BLOOD BRAIN BARRIER PERMEABILITY” (Cornell University, priority 2008, published 2019)", "key": {"Z310 cells": {"test_system": "Z310 cells", "test": "Jurkat cell migration across Z310 choroid plexus cell transwell", "type": "cell-based, murine", "conditions": "Z310 cells on Transwell; migrated cells counted after 24 hours; n=1", "procedure": "The choroid plexus (“CP”) controls lymphocyte migration into the CNS. The CP expresses the A1 and A2a adenosine receptors. EAE is prevented in mice when A2a adenosine receptor activity is blocked. EAE is enhanced when the A1 adenosine receptor is missing. It was hypothesized that A2a adenosine receptor activation promotes lymphocyte migration across the CP. Z310 cells are a murine choroid plexus cell line. To test the hypothesis, Transwell membranes were seeded with Z310 cells and allowed to grow to confluencey. 2×10^6 Jurkat cells were added to the upper chamber with or with out NECA (n=1, general AR agonist), CCPA (n=1, A1AR agonist), CGS 21680 (n=1, A2AAR agonist), or DMSO vehicle(n=1). After 24 hours, migrated cells in the lower chamber were counted. Values are relative to the number of cells that migrate through non-Z310 seeded transwells and the results are shown in FIG. 12."}, "hCMEC/D3 cells [1]": {"test_system": "hCMEC/D3 cells", "test": "Jurkat cell migration across hCMEC/D3 transwell in vitro BBB", "type": "cell-based, human", "conditions": "hCMEC/D3 on Transwell; migrated cells counted after 24 hours", "source_text": "The blood brain barrier (BBB) is comprised of endothelial cells. During late stages of EAE, lymphocytes are known to cross the BBB. In order to determine if adenosine receptor stimulation of brain endothelial cells could promote lymphocyte migration through the BBB, an in vitro BBB was established. The human brain endothelial cell line hCMEC/D3 (Weksler et al., “Blood-brain Barrier-specific Properties of a Human Adult Brain Endothelial Cell Line,” J. Neurochem. 19(13):1872-4 (2005); Poller et al., “The Human Brain Endothelial Cell Line hCMEC/D3 as a Human Blood-brain Barrier Model for Drug Transport Studies,” J. Neurochem. 107(5):1358-1368 (2008), which are hereby incorporated by reference in their entirety) was obtained, which has been previously described as having BBB properties.\nhCMEC/D3 cells were seeded onto Transwell and allowed to grow to confluencey. 2×10^6 Jurkat cells were added to the upper chamber with or without NECA (general adenosine receptor [AR] agonist), CCPA (A1AR agonist), CGS 21680 (A2AAR agonist), or DMSO vehicle. After 24 hours, migrated cells in the lower chamber were counted. Values are relative to the number of cells that migrate through non-HCMECD3 seeded transwells."}, "hCMEC/D3 cells [2]": {"test_system": "hCMEC/D3 cells", "test": "cAMP levels in hCMEC/D3 cells (cAMP Screen kit)", "type": "cell-based, human", "conditions": "15 minutes treatment, various concentrations", "procedure": "Adenosine receptor activation regulates cAMP levels in cells. In order to determine the sensitivity of human brain endothelial cells to adenosine receptor induced cAMP regulation, human brain endothelial cells were cultured with adenosine receptor agonists at various concentrations, followed by cAMP level analysis, as shown in FIG. 13.\nHCMECD3 cells were grown to confluencey on 24 well plates. As adenosine receptor (“AR”) stimulation is known to influence cAMP levels, cells were treated with or without various concentrations of NECA (general AR agonist), CCPA (A1AR agonist), CGS 21680 (A2AAR agonist), DMSO vehicle, or Forksolin (induces cAMP). After 15 minutes, lysis buffer was added and the cells were frozen at −80 C to stop the reaction. Duplicate samples were used for each condition. cAMP levels were assayed using a cAMP Screen kit (Applied Biosystems, Foster City, Calif.)."}, "blood brain barrier [3]": {"test_system": "blood brain barrier", "test": "Evans Blue dye extravasation across the blood brain barrier in mice immunized for EAE", "type": "in vivo, mouse", "conditions": "WT EAE mice; 100 μl 0.01 nM on day 1, 3, 5, 7, 9; dye on day 10, brain harvested six hours later; vs PBS control EAE mice", "procedure": "In order to determine if activation of adenosine receptors would induce extravazation of Evans Blue dye across the blood brain barrier (BBB), mice were first treated on day one with NECA, a non-selective adenosine receptor agonist (n=2, 100 μl 0.01 nM); and, PBS as a vehicle control (n=2, 100 μl). On day 2 mice were then immunized with CFA-MOG35-55 and pertussis to induce EAE. Then NECA or PBS was administered every other day on day 3, day 5, day 7 and day 9. On day 10, mice were injected intravenously with 200 μl 1% Evans Blue dye ([…] total dye injected). Six hours after administration of Evans Blue, mice were anesthetized with a ketamine/xylazine mix and perfused via the left ventricle with ice cold PBS. Brains were harvested and homogenized in n,n-dimethylformamide (DMF) at 5 μl/mg (v:w). Tissue was incubated for 72 hours at room temperature in DMF to extract the dye. Following extraction, the tissue/solvent mixture was centrifuged at 500×g for 30 minutes and 100 μl of supernatant was read on a BioTex spectrophotometer at 620 nm."}, "blood brain barrier [4]": {"test_system": "blood brain barrier", "test": "Evans Blue dye extravasation across the blood brain barrier after single i.v. treatment", "type": "in vivo, mouse", "conditions": "100 μl 0.01 nM single i.v. one hour before dye, brain harvested four hours after dye", "procedure": "The objective of this experiment was to determine if the blood brain barrier could be modulated by activation of adenosine receptors. NECA is a non-selective adenosine receptor agonist, with similar affinities for A1, A2a and A3 adenosine receptors and a low affinity for the A2b adenosine receptor. In order to determine if activation of adenosine receptors would induce extravasation of Evans Blue dye across the blood brain barrier (BBB), mice were treated with: NECA, a non-selective adenosine receptor agonist (n=5, 100 μl 0.01 nM); SCH58261, an A2a adenosine receptor specific antagonist (n=5, 1 mg/kg); pertussis toxin, an agent known to induce BBB leakiness and as such used as a positive control (n=7, 200 μl); and, PBS as a vehicle control (n=5, 100 μl). CD73^−/− mice, which lack the ability to produce extracellular adenosine, were also treated with NECA (n=4, 100 μl 0.01 nM). Treatments were administered as a single i.v. injection one hour prior to i.v. injection of 200 μl 1% Evans Blue dye ([…] total dye injected). Four hours after administration of Evans Blue, mice were anesthetized with a ketamine/xylazine mix and perfused via the left ventricle with ice cold PBS. […] Following extraction, the tissue/solvent mixture was centrifuged at 500×g for 30 minutes and 100 μl of supernatant was read on a BioTex spectrophotometer at 620 nm. Data is expressed as μg Evans Blue/ml DMF."}}}
{"molecule": "CCNC(=O)[C@H]1O[C@@H](n2cnc3c(N)ncnc32)[C@H](O)[C@@H]1O", "note": "[NECA]", "values": [{"measurement": "lymphocyte (Jurkat) migration across the CP", "setting": "Z310 cells", "value": "induced migration"}, {"measurement": "lymphocyte (Jurkat) migration across the in vitro BBB", "setting": "hCMEC/D3 cells [1]", "value": "induced some migration"}, {"measurement": "cAMP levels", "setting": "hCMEC/D3 cells [2]", "value": "increased cAMP levels"}, {"measurement": "BBB permeability (Evans Blue dye migration into the CNS)", "setting": "blood brain barrier [3]", "value": "increase in BBB permeability over PBS control EAE mice"}, {"measurement": "Evans Blue dye migration across the blood brain barrier", "setting": "blood brain barrier [4]; CD73-/- mice, vs PBS control", "value": "almost five fold increase in dye migration vs. the PBS control"}, {"measurement": "Evans Blue dye migration across the blood brain barrier", "setting": "blood brain barrier [4]; WT mice, vs control mice", "value": "increase over control mice"}]}
